From patent US20220356163A1, “SMALL MOLECULE INHIBITORS OF Id PROTEINS” (MEMORIAL SLOAN KETTERING CANCER CENTER, priority 2019, published 2022)

Tests used:
[1] = test system: choroidal neovascularization; assay: Laser-induced choroidal neovascularization (CNV) model of AMD; format: in vivo, mouse
Description: Mouse mode/s of ocular neovascularization. CNV was induced as previously described. Tobe et al., Am. J. Pathol., 153, 1641-1646 (1998). Briefly, 4-6 week-old female Id1^−/− or Id3^−/− mice and littermate control Id1^+/+ or Id3^+/+ mice (all in C57BL/6 background) had laser-induced rupture of Bruch's membrane at three locations in each eye and after 14 days mice were euthanized, eyes were removed, and choroidal flat mounts were stained with FITC-labeled Griffonia simplicifolia lectin (Vector Laboratories, Burlingame, Calif.) which selectively stains vascular cells (n=12 mice per group). Flat mounts were examined by fluorescence microscopy and the area of each CNV was measured by image analysis with Image-Pro Plus software (Media Cybernetics, Silver Spring, Md.) by an observer masked with respect to experimental groups. In other experiments, wild type 4-6 week-old, female, C57BL/6 mice had rupture of Bruch's membrane in each eye followed by intravitreal injection of 1-30 μg of AGX51 (racemic, E1 or E2) or vehicle in one eye immediately and after 7 days or mice were given twice daily i.p. injections of 500 μg of AGX51 or vehicle for 14 days (n=7-10 mice per group). The area of CNV was measured 14 days after rupture of Bruch's membrane. For Aflibercept and AGX-A treatment experiments, rupture of Bruch's membrane was carried out and then mice were treated with 40 μg of Aflibercept, 10 μg of AGX51E2, 1-5 μg of AGX51, 1-5 μg of AGX-A, DMSO or combinations. The mice were 4-6 week-old female C57BL/6. After 14 days, the mice were euthanized and CNV was measured as described above.

HCT116 cells = assay: HCT116 MTT viability, cell cycle and Cyclin D1; format: cell-based; conditions: HCT116, 40 μM
Method: Immunoblotting. For immunoblotting, cells were collected by trypsinization, washed with PBS and lysed in homogenization buffer (0.3 M sucrose, 10 mM Tris (pH 8.0), 400 mM sodium chloride, 3 mM magnesium chloride, 0.5% NP40/IGEPAL, 100 μg/mL Aprotinin+Protease inhibitor cocktail (Roche #11 836 153 001). Proteins were separated by SDS-PAGE, transferred to a membrane (LI-COR), probed with primary antibodies overnight at 4° C., and probed with secondary antibodies (LI-COR) for 1-2 hours at room temperature. Proteins were visualized using the LI-COR Odyssey Infrared Imaging detection system. The following primary antibodies were used Id1, Id2, Id3, Id4 (195-14, 9-2-8, 17-3, 82-12, respectively, all from Biocheck), Cyclin D1 (2978, Cell Signaling), Actin (A2066, Sigma), Tubulin (T4026, Sigma). Western blot quantification was carried out using channel 700 and channel 800 intensity data from Odyssey application software version 3.0.30 (LI-COR), subtracting blank values and normalizing to Tubulin.
Cell viability assays. Cell lines were seeded in a 96 well plate (5000 cells per well). After overnight incubation, cells were treated with AGX51 and incubated for 24 hours then MTT reagent (5 mg/mL) was added per well and the cells were incubated for four hours. Following incubation, media was aspirated and 200 μL DMSO was added per well. Absorbance was then measured at 570 nm using a plate reader (Synergy 2, BioTek). Cell growth profiles were determined by seeding 38,000 cells in a 24-well plate, in triplicate for each time point, and counting the cells on days 1, 3 and 5 after seeding, using trypan blue exclusion of dead cells.
Cell cycle analysis. […] For cell cycle analysis cells were centrifuged 1000 rpm for 5 minutes, washed with 1×PBS and then resuspended in 0.5 mL PI/RNase staining buffer (550825, BD Biosciences), incubated for 15 minutes at room temperature and analyzed by flow cytometry (LSR II).

lung metastases = assay: LLC metastasis model; format: in vivo, mouse; conditions: daily ip
Method: Thirty C57BL/6 mice will be implanted with 7.5×10^5 LLC cancer cells/animal. Seven days after implantation, 5M/5F per group will be treated daily ip for 25 days with dosing vehicle (DMSO), AGX51, or a compound of the present technology (such as AGX-A). Fourteen days after implantation, another group of 5M/5F animals will be treated daily ip for 18 days with 50 mg/kg of AGX51 and another group of 5M/5F animals will be treated daily ip for 18 days with a compound of the present technology (such as AGX-A). Tumors will be measured three times from Day 7 to 14. On Day 14, the tumors will be excised. The animals will be necropsied for the presence of lung metastases on day 32, 18 days post excision.

HUVEC = HUVEC scratch (migration) assay; format: cell-based, human; conditions: 0-40 μM, 24 hours
Method: HUVEC scratch assay. HUVECs were seeded on 24-well plate coated with 0.1% fibronectin. After 24 hours when cells were grown to confluency, cells were serum starved for 4 hours in Endothelial Basal Medium (EBM, Lonza) and scraped with a sterile P200 pipette tip to generate a cell free zone. Cells were washed with PBS and stimulated with EGM-2 medium with the indicated AGX concentration for 24 hours. The scratched area at 0 and at 24 hours was visualized using an inverted microscope and photographed with a digital camera at 20× magnification.

Row | SMILES | CNV area relative to vehicle control ([1]; i.p. 50 μL of 10 mg/mL bid, day 14) | CNV area ([1]; intravitreal 5 μg, days 1 and 7, p<0.05) | Id1 immunofluorescence in CNV regions ([1]; intravitreal injection) | CNV area relative to vehicle ([1]; twice daily i.p. injections (~30 mg/kg), p<0.05) | CNV area relative to vehicle ([1]; two intravitreal injections of 10 μg (2 h and 7 days), day 14, p<0.05) | Cyclin D1 levels (HCT116 cells; 0-48 hours) | cell cycle (HCT116 cells; 4-24 hours) | cell viability (HCT116 cells; 24 hours) | lung metastases (lung metastases) | HUVEC migration (HUVEC) | CNV area, AGX-A vs AGX51 ([1]; intravitreal 1 μg dose)
1 | CCC(=O)N(CCC(c1ccc2c(c1)OCO2)c1ccccc1OC)Cc1ccccc1 (racemic) [AGX51, N-(3-(benzo[d][1,3]dioxol-5-yl)-3-(2-methoxyphenyl)propyl)-N-benzylpropionamide] | reduced CNV area significantly | effective at significantly reducing CNV | no Id1 positive cells | significantly reduced CNV | significantly suppressed CNV | reduction in Cyclin D1 levels | G0/G1 growth arrest | reduced cell viability | profoundly diminish lung metastases | significantly impaired HUVEC migration | –
2 | COc1ccccc1C(CCNCc1ccccc1)c1ccc(OC(C)C)cc1 (centres unmarked) [AGX-A, N-benzyl-3-(4-isopropoxyphenyl)-3-(2-methoxyphenyl)propan-1-anine] | – | – | – | – | – | – | – | – | – | – | performed better than AGX51
